Literature values as cited in patent publication US5258185A (priority 1989, dated 1993).

What was measured:
[1] = e.g. incorporation in melts of high molecular polyethylene glycols
[2] = not given; remark: listed apart in the source
[3] = extremely fine crystallizates, surface size 3 to 10 m^2 (DE-OS 23 48 334)

## COc1ccc(Cl)cc1C(=O)NCCc1ccc(S(=O)(=O)NC(=O)NC2CCCCC2)cc1 [Glibenclamide, N-4-(5-chloro-[2-methoxy-benzamido)ethyl]phenylisulfonyl-N'-cyclohexyl urea]
[1]
  effect of processing at elevated temperatures on stability: detrimental to stability
Acidic range
  water solubility depending on pH: virtually water-insoluble
alcohol
  solubility in alcohol: only moderately soluble
chloroform
  solubility in chloroform: only moderately soluble
ether
  solubility in ether: virtually insoluble
[3]
  solubility and dissolution rate with increase in surface: increase in solubility and dissolution rate
water
  solubility in water: virtually insoluble
[2]; [3]
  bioavailability with increase in surface: improving the bioavailability
[2]; micronized, mean particle size ±5 μm, above all in the presence of tensides
  drug release and bioavailability of micronized glibenclamide: improved drug release and bioavailability
